Experiment [1] relates to bleomycin induced dermal fibrosis. As to conditions: previously shown, Akhmetshina et al. 2009; cited from earlier work.
The test system of experiment [2] is IL-10. The experiment is described as follows: IL-10 production in LPS-stimulated hPBMC (Luminex). The class given is cell-based, human. The settings on record: at 10 μM; used as upper constraint for EC50s. The method, then:
(§1) 50 ml human buffy coat was aliquoted 25 ml each into two 50 ml conical tubes and 25 ml sterile HBSS was added to each conical tube. The tubes were gently mixed by inverting. Fifteen ml of room temperature Ficoll-Paque Plus (GE Healthcare (location); cat #17-1440-02) was aliquoted into four 50 ml conical tubes. Then 25 ml of the Buffy coat/HBSS mixture was layered gently and slowly on top of the Ficoll. The samples were centrifuged at 450 rpm for 35 minutes. The top layered containing plasma was pipetted off and discarded. The interface containing mononuclear cells was transferred into two 50 ml conical tubes. Both conical tubes were filled to total volume of 50 ml with HBSS and centrifuged at 1200 rpm for 10 minutes. The cells were washed again in HBSS and spun at 1000 rpm for 10 minutes. Cell pellet was resuspended with 20 ml RPMI complete medium (RPMI/5% human sera/1× pen/strep/glut) and counted.
(§2) One hundred μl (2×10^6/ml) of hPBMCs were added to each well of a 96 well flat-bottom plate (final cell count=2×10^5/well) and incubated at 37° C. for 1 hour. […]
(§3) Supernatant samples were analyzed for cytokines in multiplex format according to the manufacturer's instructions (Millipore, Billerica, Mass. 01821) using a Luminex IS100 instrument. […]

Experiment [3] relates to anti-CD3-stimulated human T cells. Nature of the experiment: Cytokine and chemokine production in anti-human CD3-stimulated human T cells (Luminex). It is filed as cell-based. As to conditions: 48 hours. The method, then:
(§4) The test compounds were prepared as stock solutions of 4 mM in DMSO. T cells were isolated from buffy coat by negative selection using the RosetteSep® T Cell Enrichment Cocktail according to manufacturer's procedures. All 96-well plates were pre-coated with 3 μg/mL anti-human CD3 antibody in 100 μL 1× PBS for 4 hours at 37° C. The plates were washed 3 times with RPMI-1640 Complete Media prior to the T cell assay. The T cells were then plated in anti-CD3-pre-coated plates at a density of 2.5×10^5 cells/well in 180 μL RPMI-1640 Complete Media. […] The final DMSO concentrations were 0.25%. The plates were incubated for 48 hours at 37° C., 5% CO2. After 48 hours, the supernatants were harvested and tested by a multiplex cytometric bead array (CBA) assay for the following cytokines/chemokines: IL-2, IL-3, IL-5, IL-10, IL-13, IL-15, IL-17A, GM-CSF, G-CSF, IFN-γ, TNF-α, and RANTES. The CBA plates were analyzed on the Luminex IS100 instrument. Data from each donor was graphed using GraphPad Prism 5.0 software and expressed as mean pg/mL±SEM and % of DMSO control±SEM.

For another experiment, the system named is IL-5. The experiment is described as follows: IL-5 production in anti-human CD3-stimulated human T cells. The class given is cell-based. The settings on record: 48 hours. The method, then:
as §4

Experiment [4] has as its system IL-10. Nature of the experiment: IL-10 production in anti-human CD3-stimulated human T cells. It is filed as cell-based. Here is the method: as §4
In a further experiment the test system is IL-8. The experiment is described as follows: IL-8 production in LPS-stimulated hPBMC (Luminex). The class given is cell-based. As to conditions: Homo sapiens; LPS 1 ng/ml, 18 hours. Here is the method:
as §1, §2, §3

In another experiment the test system is IL-1β. Nature of the experiment: IL-1β production in LPS-stimulated hPBMC (Luminex). It is filed as cell-based. As to conditions: Homo sapiens; LPS 1 ng/ml, 18 hours. The method, then: as §1, §2, §3
Another experiment has as its system MIP-1β. The experiment is described as follows: MIP-1β production in LPS-stimulated hPBMC (Luminex). It is filed as cell-based. As to conditions: Homo sapiens; LPS 1 ng/ml, 18 hours. Here is the method:
as §1, §2, §3

In another experiment the test system is TNF-α. The experiment is described as follows: TNF-α production in LPS-stimulated hPBMC (Luminex). The class given is cell-based. The settings on record: Homo sapiens; LPS 1 ng/ml, 18 hours. The method, then:
as §1, §2, §3

In another experiment the test system is NK cell IFN-γ production. Nature of the experiment: NK IgG-induced interferon-gamma (IFN-gamma) assay. It is filed as cell-based, human. Here is the method: NK cells from healthy donors were isolated from buffy coat blood by negative selection using the RosetteSep NK cell enrichment cocktail (Stem Cell Technologies, Vancouver, BC) prior to Ficoll-Hypaque (Fisher Scientific Co LLC, PA) density gradient centrifugation following the manufacturers' instructions. CD56+ NK cells were isolated to ˜85% purity, as determined by flow cytometry (BD Biosciences, CA). Ninety-six-well flat-bottom plates were coated with 100 μg/mL of human IgG (Sigma) overnight at 4° C. The next day, unbound IgG was washed away with cold 1× PBS. NK cells were then plated in the IgG-coated 96-well plates at 2×10^5 cells per well in 180 μL RPMI-1640 Media and 10 ng/mL of rhIL-2 (R & D Systems, MN) was added. […] Final DMSO concentrations were 0.25%. After 48 hours, the supernatants were harvested and analyzed by ELISA for IFN-γ production. […] The data are presented in two ways, (1) as the absolute amount if IFN-γ produced (pg/mL±SEM) and (2) as the percentage of the amount of IFN-γ produced in the presence of 1 μM pomalidomide.

Experiment [5] relates to Rituximab coated lymphoma cells (WSU-DLCL2, Farage, DoHH2, Riva, Raji). The experiment is described as follows: ADCC assay: NK cell-mediated ADCC (LDH release). As to conditions: 0.01 to 10 μM, 48 hours pretreatment, effector:target 10:1. It is filed as cell-based, human. From the text: NK cells from healthy donors were isolated from buffy coat blood by negative selection using the RosetteSep NK cell enrichment cocktail (Stem Cell Technologies, Vancouver, BC) prior to Ficoll-Hypaque (Fisher Scientific Co LLC, PA) density gradient centrifugation following the manufacturers' instructions. CD56+ NK cells were isolated to ˜85% purity, as determined by flow cytometry (BD Biosciences, CA). […] Various lymphoma cell lines (GCB-DLBCL: WSU-DLCL2 and Farage; Follicular lymphoma:DoHH2; ABC-DLBCL: Riva; Burkitt's lymphoma [BL]: Raji) were treated with 5 μg/mL rituximab for 30 minutes at 37° C. Unbound rituximab was washed off, target cells (5×103/100 μL/well) were added to the pretreated effector cells (NK cells) at a 10:1 ratio, and the two were co-incubated for 4 hours at 37° C. […] Using an aliquot of supernatant (50 μL), NK cell cytotoxicity against tumor cells was analyzed using a standard lactate dehydrogenease (LDH) release assay to measure ADCC (CytoTox 96 Non-Radioactive Cytoxicity Assay, Promega, WI). Spontaneous release by target cells alone was <15% of the maximum release, as determined with target cells lysed in 1% Triton X-100. […] The percentage of specific lysis was calculated according to the formula: Percentage specific lysis=100×(experimental−effector spontaneous−target spontaneous)/(target maximum−target spontaneous).
In general terms: LDH in the medium is a marker of cell lysis.

In a further experiment the test system is IgG production. The experiment is described as follows: IgG production in B cell differentiation assay (ELISA). It is filed as cell-based. The settings on record: Homo sapiens. Here is the method:
(§5) Step 1—B cell Activation—day 0 through day 4: Prepare fresh B cell cocktail by adding 50 μg/mL of human transferrin to B cell media. (Iscoves +10% PFBS, 1% P/S, and 5 μg/mL human insulin). Filter required volume of media needed for experiment through a […] filter. Add B cell differentiation cocktail (final concentration): recombinant human IL-2 (20 U/mL), IL-10 (50 ng/mL), IL-15 (10 ng/mL), CD40 Ligand/TNFSFS/histidine-tagged (50 ng/mL), polyHistidine mouse IgG1 antibody (5 μg/mL), and ODN 2006-Human TLR9 ligand (10 μg/mL) to cells. Five milliliters (1×10^5/ml) of CD19+ B cell were added to each well of a 6 well flat-bottom plate (final cell count=5×10^5/well). Five μL (1×)±compound/DMSO was added to each test well (0.1% final DMSO) and incubated at 37° C. for 4 days.
(§6) Step 2—Plasmablast Generation—day 4 through day 7: Cells were harvested and counted on the cell counter; an aliquot was removed for flow analysis, the remaining cells were washed with PBS. […]
(§7) On day 7, cells were harvested and counted on the cell counter. […]
(§8) Supernatants (from section 8.4.3) were harvested and analyzed by ELISA for IgG and IgM production (ZeptoMetrix Corp. Buffalo, N.Y.).
(§9) The data was graphed using GraphPad Prism 5.0 software. […] The results for test compounds in the Ig assays were expressed as the percentage inhibition relative to control DMSO values.
On the technique in general: In an ELISA, binding on a coated surface is turned into a signal by an enzyme label.

The subject of the next experiment is IgM production. The experiment is described as follows: IgM production in B cell differentiation assay (ELISA). The class given is cell-based. As to conditions: Homo sapiens. The method, then:
as §5, §6, §7, §8, §9

Experiment [6] concerns bleomycin induced dermal fibrosis. Nature of the experiment: Bleomycin induced dermal fibrosis mouse model, prevention of fibrosis. As to conditions: 30 mg/kg, PO, QD, p<0.0001. The class given is in vivo, DBA/2 mice.
Protocol: Bleomycin was obtained from the pharmacy of the University of Erlangen-Nuremberg and freshly prepared once a week. Skin fibrosis was induced in 6-week-old DBA mice by local intracutaneous injections of 100 μl of bleomycin dissolved in 0.9% NaCl, at a concentration of 0.5 mg/ml, every other day in defined areas of 1.5 cm2 on the upper back.
In this model, a localized dermal fibrosis is induced by intradermal injections with bleomycin every other day for 3 weeks. […] To evaluate potential effects on prevention of fibrosis, treatment was initiated simultaneously with the first bleomycin injection. […]
Dermal thickness was determined by staining with hematoxylin and eosin and activated fibroblasts by using immunohistochemistry for alpha smooth mucle actin (α-SMA). […] Dermal thickness was analyzed with a Nikon Eclipse 80i microscope (Nikon, Badhoevedorp, The Netherlands) by measuring the maximal distance between the epidermal-dermal junction and the dermal-subcutaneous fat junction at 4 different skin sections in each mouse. […]
For quantification of myofibroblasts, skin sections were deparaffinized and incubated with 5% bovine serum albumin for 60 minutes. Cells positive for α-SMA were detected by incubation with monoclonal anti-α-SMA antibodies (clone 1A4; Sigma-Aldrich, Steinheim, Germany) for 2 hours at room temperature followed by incubation with 3% hydrogen peroxide for 10 minutes. […]
Experiment [7] has the same test system. Nature of the experiment: Modified bleomycin induced dermal fibrosis mouse model, regression of established fibrosis. The class given is in vivo, DBA/2 mice. The settings on record: 30 mg/kg, PO, QD, p<0.0001.
Protocol: Skin fibrosis was induced in 6-week-old DBA mice by local intracutaneous injections of 100 μl of bleomycin dissolved in 0.9% NaCl, at a concentration of 0.5 mg/ml, every other day in defined areas of 1.5 cm2 on the upper back.
Dermal thickness was determined by staining with hematoxylin and eosin and activated fibroblasts by using immunohistochemistry for alpha smooth mucle actin (α-SMA). […] Skin sections were stained with hematoxylin/eosin for better visualization of the tissue structure. Dermal thickness was analyzed with a Nikon Eclipse 80i microscope (Nikon, Badhoevedorp, The Netherlands) by measuring the maximal distance between the epidermal-dermal junction and the dermal-subcutaneous fat junction at 4 different skin sections in each mouse. The evaluation was performed by 2 independent examiners.

Structures can show the parent of a compound that is named as a salt. Some results are limits rather than exact numbers.

With `Cc1ccc(NC(=O)c2ccc(CN3CCN(C)CC3)cc2)cc1Nc1nccc(-c2cccnc2)n1` [Imatinib mesylate], the “anti-fibrotic effects in bleomycin induced dermal fibrosis” value in experiment [1] is on record as “potent anti-fibrotic effects”.

As to `Nc1cccc2c1C(=O)N(C1CCC(=O)NC1=O)C2=O` (stereo not drawn) [pomalidomide], in the experiment on IL-10 [2], the “average IL-10 enhancement” value is 246.9%.

Take `Cc1nc2cccc(N)c2c(=O)n1C1CCC(=O)NC1=O` (stereo not drawn) [test compound, 3-(5-amino-2-methyl-4-oxoquinazolin-3(4H)-yl)piperidine-2,6-dione]: the “IL-2, IL-3, IL-5, IL-10, IL-13, GM-CSF, IFN-γ, RANTES, and TNF-α production in stimulated human T cells” value in experiment [3] is reported as “enhanced”. Also, the “increase of IL-5 production” value in the experiment on IL-5 (0.01 μM) amounted to 3 fold; in the experiment with IL-5 (0.1 μM) it was 4 fold. Besides, the IL-10 production result in the experiment with IL-10 [4] (at higher concentrations) is “inhibited enhancement of IL-10 production”; in the experiment on IL-10 [4] (at lower concentrations), “enhanced IL-10 production”. Further, the IC50 in the experiment with IL-8 is more than 10 µM; in the experiment on IL-1β, 54 nM; with MIP-1β it was more than 10 µM; in the experiment on TNF-α, 34 nM; in the experiment with IgG production (Normal (n = 3)), 61 nM; with IgG production (SLE (n = 3)), 46 nM. The IC50 amounted to 23 nM with IgM production (Normal (n = 3)) and 30 nM in the experiment with IgM production (SLE (n = 3)). Further, the EC50 with NK cell IFN-γ production (Homo sapiens, immobilized IgG and rhIL-2, 48 hours, maximal = IFN-γ produced with 1 μM pomalidomide, read-out: EC50, half-maximal IFN-γ production) stood at 1.5 nM. In addition, the “NK cell IFN-γ production” value in the experiment with NK cell IFN-γ production (immobilized IgG and IL-2 stimulation) was “enhanced”. In addition, the “NK cell-mediated ADCC” value in [5] was “induced dose-dependent NK cell-mediated ADCC in all cell lines”. Moreover, the “prevention of dermal thickening” value in [6] (three weeks) is listed as “approximately 22±0.49%”. In addition, the “reduction of number of α-SMA+ myofibroblasts in lesional skin” value in experiment [6] is given as 30±0.23%. Besides, the “reduction of bleomycin induced dermal thickening” value in [7] came to 22±0.28%.

A word on the IC50: it is the concentration that gives 50% inhibition. Low readings indicate greater potency in that assay, high ones weaker potency in that assay. By EC50 is commonly meant the concentration at which the effect is half-maximal.

The values above are taken from patent publication US20170165266A1 (Celgene Corporation, priority 2010, published 2017).
